# Tested on: basal ERK1/2 phosphorylation in Malme-3M cells
# Experiment: Cellular ERK 1/2 phosphorylation assay
# Assay type: cell-based
# Settings: Homo sapiens, 1 hour incubation, pERK normalized to total ERK, representative data of multiple tests
# Procedure: Inhibition of basal ERK1/2 phosphorylation was determined by the following in vitro […], which comprises incubating cells with a compound of Formula I for 1 hour and quantifying the fluorescent pERK signal on fixed cells and normalizing to total ERK signal.
# Materials and Methods: Malme-3M cells were obtained from ATCC and grown in RPMI-1640 supplemented with 10% fetal bovine serum. Cells were plated in 96-well plates at 24,000 cells/well and allowed to attach for 16-20 hours at 37° C., 5% CO2. The media was removed, and DMSO-diluted compounds were added in RPMI-1640 at a final concentration of 1% DMSO. The cells were incubated with the compounds for 1 hour at 37° C., 5% CO2. The cells were washed with PBS and fixed in 3.7% formaldehyde in PBS for 15 minutes. This was followed by washing in PBS/0.05% Tween20 and permeabilizing in −20° C. 100% MeOH for 15 minutes. Cells were washed in PBS/0.05% Tween20 then blocked in Odyssey blocking buffer (LI-COR Biosciences) for 1 hour. Antibodies to phosphorylated ERK (1:400, Cell Signaling #9106, monoclonal) and total ERK (1:400, Santa Cruz Biotechnology #sc-94, polyclonal) were added to the cells and incubated 16-20 hours at 4° C. After washing with PBS/0.05% Tween20, the cells were incubated with fluorescently-labeled secondary antibodies (1:1000 goat anti-rabbit IgG-IRDye800, Rockland and 1:500 goat anti-mouse IgG-Alexa Fluor 680, Molecular Probes) for an additional hour. Cells were then washed and analyzed for fluorescence at both wavelengths using the Odyssey Infrared Imaging System (LI-COR Biosciences). Phosphorylated ERK signal was normalized to total ERK signal.
row,Structure (SMILES),IC50 [nM]
1,"CCCS(=O)(=O)Nc1ccc(F)c(C(=O)Nc2cnc3cc(-c4ccccc4)nn3c2)c1F [Example 5, 2,6-difluoro-N-(2-phenylpyrazolo[1,5-a]pyrimidin-6-yl)-3-(propylsulfonamido)benzamide]",13.9

# Target: T1, V600E full-length B-Raf (Homo sapiens, UniProt P15056, V600E)
# T1 construct: made in house; host or cells: Sf9 insect cells (baculovirus)
# Experiment: B-Raf IC50 assay (incorporation of radiolabeled phosphate from [γ-33P]ATP into FSBA-modified wild-type MEK)
# Assay type: biochemical
# Settings: bound stated
# From the text: Determining the activity of Raf in the sample is possible by a number of direct and indirect detection methods (US 2004/0082014). Activity of human recombinant B-Raf protein may be assessed in vitro by assay of the incorporation of radio labeled phosphate to recombinant MAP kinase (MEK), a known physiologic substrate of B-Raf, according to US 2004/0127496 and WO 03/022840.
# Activity of human recombinant B-Raf protein may be assessed in vitro by assay of the incorporation of radio labeled phosphate to recombinant MAP kinase (MEK), a known physiologic substrate of B-Raf, according to US 2004/0127496 and WO 03/022840. Catalytically active human recombinant B-Raf protein is obtained by purification from sf9 insect cells infected with a human B-Raf recombinant baculovirus expression vector.
# Incubations were carried out at 22° C. in a Costar 3365 plate (Corning). Prior to the assay, the B-Raf and FSBA-MEK were preincubated together in assay buffer at 1.5× (20 μL of 30 nM and 1.5 μM, respectively) for 15 minutes, and the assay was initiated by the addition of 10 μL of 10 μM ATP. Following the 60-minute incubation, the assay mixtures were quenched by the addition of 100 μL of 25% TCA, the plate was mixed on a rotary shaker for 1 minute, and the product was captured on a Perkin-Elmer GF/B filter plate using a Tomtec Mach III Harvester. After sealing the bottom of the plate, […] of Bio-Safe II (Research Products International) scintillation cocktail were added to each well and the plate was top-sealed and counted in a Topcount NXT (Packard).
# T1 sequence (P15056 whole entry V600E): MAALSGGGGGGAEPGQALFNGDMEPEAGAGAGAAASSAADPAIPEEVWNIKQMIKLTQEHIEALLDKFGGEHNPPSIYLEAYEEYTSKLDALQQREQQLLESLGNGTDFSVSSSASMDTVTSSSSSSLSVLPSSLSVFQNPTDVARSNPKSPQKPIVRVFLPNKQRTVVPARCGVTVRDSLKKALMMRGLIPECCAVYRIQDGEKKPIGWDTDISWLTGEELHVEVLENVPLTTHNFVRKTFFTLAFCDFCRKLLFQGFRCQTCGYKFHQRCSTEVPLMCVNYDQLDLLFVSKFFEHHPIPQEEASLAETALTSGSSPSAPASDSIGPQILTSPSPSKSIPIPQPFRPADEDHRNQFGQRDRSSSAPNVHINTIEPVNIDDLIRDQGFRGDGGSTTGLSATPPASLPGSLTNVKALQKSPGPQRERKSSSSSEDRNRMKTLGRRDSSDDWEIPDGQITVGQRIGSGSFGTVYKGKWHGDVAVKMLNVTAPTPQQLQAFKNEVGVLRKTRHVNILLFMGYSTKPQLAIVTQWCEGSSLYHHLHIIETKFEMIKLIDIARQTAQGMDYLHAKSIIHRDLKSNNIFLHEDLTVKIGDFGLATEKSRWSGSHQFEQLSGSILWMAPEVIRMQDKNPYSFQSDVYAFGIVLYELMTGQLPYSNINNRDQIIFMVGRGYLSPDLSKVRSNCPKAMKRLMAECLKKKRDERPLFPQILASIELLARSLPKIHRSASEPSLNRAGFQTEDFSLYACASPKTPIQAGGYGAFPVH
row,IC50 [nM],Structure (SMILES)
1,< 150,"CCCS(=O)(=O)Nc1ccc(F)c(C(=O)Nc2cnc3cc(-c4ccc(C)cc4)nn3c2)c1F [Example 8, 2,6-difluoro-3-(propylsulfonamido)-N-(2-p-tolylpyrazolo[1,5-a]pyrimidin-6-yl)benzamide]"
2,< 150,"CCCS(=O)(=O)Nc1ccc(F)c(C(=O)Nc2cnc3cc(CC)nn3c2)c1F [Example 29, N-(2-ethylpyrazolo[1,5-a]pyrimidin-6-yl)-2,6-difluoro-3-(propylsulfonamido) benzamide]"
3,< 150,"CCCS(=O)(=O)Nc1ccc(F)c(C(=O)Nc2cnc3cc(-c4ccc(Cl)cc4)nn3c2)c1F [Example 6, N-(2-(4-chlorophenyl)pyrazolo[1,5-a]pyrimidin-6-yl)-2,6-difluoro-3-(propylsulfonamido)benzamide]"
4,< 150,"CCCS(=O)(=O)Nc1ccc(F)c(C(=O)Nc2cnc3cc(C4CC4)nn3c2)c1F [Example 28, N-(2-cyclopropylpyrazolo [1,5-a]pyrimidin-6-yl)-2,6-difluoro-3-(propylsulfonamido) benzamide]"
5,< 150,"CCCS(=O)(=O)Nc1ccc(F)c(C(=O)Nc2cnc3cc(OC)nn3c2)c1Cl [Example 20, 2-chloro-6-fluoro-N-(2-methoxypyrazolo [1,5-a]pyrimidin-6-yl)-3-(propylsulfonamido) benzamide]"
6,< 300,"CCCS(=O)(=O)Nc1ccc(F)c(C(=O)Nc2cnc3cc(C4CCOC4)nn3c2)c1F (stereo not shown) [Example 31, 2,6-difluoro-3-(propylsulfonamido)-N-(2-(tetrahydrofuran-3-yl)pyrazolo[1,5-a]pyrimidin-6-yl)benzamide]"
7,< 150,"CCCS(=O)(=O)Nc1ccc(F)c(C(=O)Nc2cnc3cc(C(F)(F)F)nn3c2)c1F [Example 32, 2,6-difluoro-3-(propylsulfonamido)-N-(2-(trifluoromethyl)pyrazolo[1,5-a]pyrimidin-6-yl)benzamide]"
8,< 300,"CCCS(=O)(=O)Nc1ccc(F)c(C(=O)Nc2cnc3cc(N4CCOCC4)nn3c2)c1F [Example 36, 2,6-difluoro-N-(2-morpholinopyrazolo [1,5-a]pyrimidin-6-yl)-3-(propylsulfonamido) benzamide]"
9,< 300,"CCCS(=O)(=O)Nc1ccc(F)c(C(=O)Nc2cnc3cc(C4CCNCC4)nn3c2)c1F [Example 4, 2,6-difluoro-N-(2-(piperidin-4-yl)pyrazolo[1,5-a]pyrimidin-6-yl)-3-(propylsulfonamido)benzamide]"
10,< 300,"CCCS(=O)(=O)Nc1ccc(F)c(C(=O)Nc2cnc3ccnn3c2)c1F [Example 27, 2,6-difluoro-3-(propylsulfonamido)-N-(pyrazolo[1,5-a]pyrimidin-6-yl)benzamide]"
11,< 150,"CCCS(=O)(=O)Nc1ccc(F)c(C(=O)Nc2cnc3cc(-c4cnn(C)c4)nn3c2)c1F [Example 12, 2,6-difluoro-N-(2-(1-methyl-1H-pyrazol-4-yl)pyrazolo[1,5-a]pyrimidin-6-yl)-3-(propylsulfonamido)benzamide]"
12,< 150,"COc1cc2ncc(NC(=O)c3c(F)ccc(NS(=O)(=O)CC(C)C)c3F)cn2n1 [Example 25, 2,6-difluoro-N-(2-methoxypyrazolo [1,5-a]pyrimidin-6-yl)-3-(2-methylpropyl-sulfonamido) benzamide]"
13,< 150,"CCCS(=O)(=O)Nc1ccc(F)c(C(=O)Nc2cnc3cc(C)nn3c2)c1F [Example 26, 2,6-difluoro-N-(2-methylpyrazolo [1,5-a]pyrimidin-6-yl)-3-(propylsulfonamido) benzamide]"
14,< 150,"CCCS(=O)(=O)Nc1ccc(F)c(C(=O)Nc2cnc3cc(OCCOC)nn3c2)c1F [Example 16, 2,6-difluoro-N-(2-(2-methoxyethoxy)pyrazolo[1,5-a]pyrimidin-6-yl)-3-(propylsulfonamido)benzamide]"
15,< 150,"CCCS(=O)(=O)Nc1ccc(Cl)c(C(=O)Nc2cnc3cc(OC)nn3c2)c1F [Example 19, 6-chloro-2-fluoro-N-(2-methoxypyrazolo [1,5-a]pyrimidin-6-yl)-3-(propylsulfonamido) benzamide]"
16,< 150,"CCCS(=O)(=O)Nc1ccc(F)c(C(=O)Nc2cnc3cc(SC)nn3c2)c1F [Example 14, 2,6-difluoro-N-(2-(methylthio)pyrazolo[1,5-a]pyrimidin-6-yl)-3-(propylsulfonamido)benzamide]"
17,< 150,"CCCS(=O)(=O)Nc1ccc(F)c(C(=O)Nc2cnc3cc(OCC)nn3c2)c1F [Example 3, N-(2-ethoxypyrazolo[1,5-a]pyrimidin-6-yl)-2,6-difluoro-3-(propylsulfonamido)benzamide]"
18,< 150,"CCCS(=O)(=O)Nc1ccc(F)c(C(=O)Nc2cnc3cc(-c4ccc(F)cc4)nn3c2)c1F [Example 7, 2,6-difluoro-N-(2-(4-fluorophenyl)pyrazolo[1,5-a]pyrimidin-6-yl)-3-(propylsulfonamido)benzamide]"
19,< 150,"CCCS(=O)(=O)Nc1ccc(Cl)c(C(=O)Nc2cnc3cc(-c4ccccc4)nn3c2)c1F [Example 33, 6-chloro-2-fluoro-N-(2-phenylpyrazolo [1,5-a]pyrimidin-6-yl)-3-(propylsulfonamido) benzamide]"
20,< 150,"CCCS(=O)(=O)Nc1ccc(F)c(C(=O)Nc2cnc3cc(OC(C)C)nn3c2)c1F [Example 2, 2,6-difluoro-N-(2-isopropoxypyrazolo[1,5-a]pyrimidin-6-yl)-3-(propylsulfonamido)benzamide]"
21,< 150,"CCCS(=O)(=O)Nc1ccc(F)c(C(=O)Nc2cnc3cc(C4CCCC4)nn3c2)c1F [Example 30, N-(2-cyclopentylpyrazolo [1,5-a]pyrimidin-6-yl)-2,6-difluoro-3-(propylsulfonamido) benzamide]"
22,< 150,"CCCS(=O)(=O)Nc1ccc(F)c(C(=O)Nc2cnc3cc(NC)nn3c2)c1F [Example 35, 2,6-difluoro-N-(2-(methylamino)pyrazolo[1,5-a]pyrimidin-6-yl)-3-(propylsulfonamido) benzamide]"
23,< 150,"COc1cc2ncc(NC(=O)c3c(F)ccc(NS(=O)(=O)CCCF)c3F)cn2n1 [Example 21, 2,6-difluoro-3-(3-fluoropropyl-sulfonamido)-N-(2-methoxypyrazolo [1,5-a]pyrimidin-6-yl)benzamide]"
24,< 300,"CCCS(=O)(=O)Nc1ccc(F)c(C(=O)Nc2cnc3cc(NC(C)C)nn3c2)c1F [Example 18, 2,6-difluoro-N-(2-(isopropylamino)pyrazolo[1,5-a]pyrimidin-6-yl)-3-(propylsulfonamido)benzamide]"
25,< 150,"CCCS(=O)(=O)Nc1ccc(F)c(C(=O)Nc2cnc3cc(-c4cccc(F)c4)nn3c2)c1F [Example 9, 2,6-difluoro-N-(2-(3-fluorophenyl)pyrazolo[1,5-a]pyrimidin-6-yl)-3-(propylsulfonamido)benzamide]"
26,< 150,"CCCS(=O)(=O)Nc1ccc(F)c(C(=O)Nc2cnc3cc(-c4cnn(CCO)c4)nn3c2)c1F [Example 13, 2,6-difluoro-N-(2-(1-(2-hydroxyethyl)-1H-pyrazol-4-yl)pyrazolo[1,5-a]pyrimidin-6-yl)-3-(propylsulfonamido)benzamide]"
27,< 150,"CCCS(=O)(=O)Nc1ccc(F)c(C(=O)Nc2cnc3cc(OCCO)nn3c2)c1F [Example 15, 2,6-difluoro-N-(2-(2-hydroxyethoxy)pyrazolo[1,5-a]pyrimidin-6-yl)-3-(propylsulfonamido)benzamide]"

# Reference: patent publication US20120157451A1, “RAF INHIBITOR COMPOUNDS AND METHODS OF USE THEREOF” (GENENTECH, INC, priority 2009, published 2012)
